Data on 15 compounds can be found in US5945436A, “Pyridylmethyl nitriles, amides and thioamides useful as fungicides” (Uniroyal Chemical Company, Inc., priority 1997, dated 1999).

Molecules are shown by their SMILES.

The test system of one experiment is Erysiphe cichoracearum. The experiment can be described thus: Powdery mildew of cucumber, systemic root uptake (CMS). The experiment is classed as in vivo. The settings on record: 45 ml of 250 mg/l, 8 days after inoculation. In outline:
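Pot soil of barley (BMS) and cucumber (CMS) plants was drenched with 45 ml of a 250 mg/l acetone/Tween 20 aqueous emulsion, with untreated plants as controls. Disease was scored on a rating scale that included intermediate grades.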

Another experiment deals with Uromyces phaseoli. The experiment can be described thus: Bean rust fungus eradicant test (URO PHA). It counts as in vivo. Particulars: pinto bean, eradicant spray 2 days after inoculation, 1,000 mg/l; for pest or weed control at 1000 µg/mL: Uromyces phaseoli, 216 h, read-out: Percent Reduction of Disease, URO PHA. The method in brief: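 Seven-day-old pinto bean plants (Phaseolus vulgaris, primary leaf) were inoculated with 20,000 spores/ml, held 24 h at 99% humidity and 21° C., then sprayed two days post-inoculation with acetone/TWEEN 20 emulsions at 1,000 mg/l. After nine days in a 21° C. greenhouse, disease was scored as percent reduction versus unsprayed controls.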

The next experiment relates to Erysiphe graminis. The experiment can be described thus: Powdery mildew in barley, foliar application (ERY GRA). Particulars: foliar, 1,000 mg/l, 8 days after inoculation; for pest or weed control at 1000 µg/mL: Blumeria graminis, foliar, 192 h, read-out: Percent Reduction of Disease, ERY GRA. The experiment is classed as in vivo. The method in brief: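 'Robust' barley plants sprayed with acetone/TWEEN 20 aqueous emulsion at 1,000 mg/l, dried, then kept at 21° C in a greenhouse. Inoculated by distributing Erysiphe graminis spores from infected plants. Percent control computed from disease scores vs unsprayed control pots.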

The subject of a further experiment is Septoria nodorum. The experiment can be described thus: Fungal growth inhibition, treated disc on agar (SEP NOD). The settings on record: disc dipped in 500 mg/l, 29° C.; for inhibition at 500 µg/mL: Parastagonospora nodorum, read-out: Percent Growth Inhibition, SEP NOD. It counts as cell-based.
Experiment [1] relates to Cercosporidium personatum. Description: Fungal germination and growth, treated disc on agar, scored (CER PER). The experiment is classed as cell-based. The arrangement: key: 100: Complete inhibition of germination and growth.; 80: Nearly complete inhibition but some growth.; 50: Partial inhibition of growth or, early complete inhibition but later growth begins.; 20: Some inhibition of growth, but not significant.; 0: No inhibition of growth. The settings on record: disc dipped in 500 mg/l, 29° C., numerical score 0-100, spore suspension. In outline: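 Scoring ran from 100, complete inhibition of germination and growth, down to 0, none, after incubation at 29° C. Filter discs (11 mm) soaked in test solution and air-dried to remove acetone were set on agar and inoculated with spores (20,000 spores/ml, two drops each); untreated discs served as controls.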

The test system of a further experiment is Botrytis cinerea. The experiment can be described thus: Fungal growth inhibition, treated disc on agar (BOT CIN). The experiment is classed as cell-based. Particulars: disc dipped in 500 mg/l, 29° C.; for inhibition at 500 µg/mL: Botrytis cinerea, read-out: Percent Growth Inhibition, BOT CIN.
Another experiment deals with Fusarium oxysporum. The experiment can be described thus: Fungal growth inhibition, treated disc on agar (FUS OXY). The experiment is classed as cell-based. Particulars: disc dipped in 500 mg/l, 29° C.; for inhibition at 500 µg/mL: Fusarium oxysporum, read-out: Percent Growth Inhibition, FUS OXY.

Text for Botrytis cinerea: Filter paper discs, each 11 mm. in diameter, were dipped in each of the test solutions. The discs were allowed to air dry to drive off the acetone solvent. A number of untreated discs were used as controls.
The treated and untreated discs were then placed on agar plates and one of the following fungus species: Septoria nodorum (SEP NOD), Botrytis cinerea (BOT CIN), Fusarium oxysporum (FUS OXY), Pythium ultimum (PYT ULT), Rhizoctonia solani (RHI SOL), Colletotrichum gossypii (COL GOS), and Scierotinia minor (SCL MIN), was added to the center of each disc in the form of a culture plug with the fungus mat in contact with the paper of the test disc. Cercosporidium personatum (CER PER), was added to discs as a spore suspension (20,000 spores/ml) to the disc (two drops of spore suspension per disc), rather than a mycelial culture plug. The plates were then incubated at 29° C. in an oven.
With the exception of the discs containing Cercosporidium personatum, the discs were evaluated by first measuring the radius from the center of the fungus colony on the treated discs and on the untreated discs. Percent growth inhibition of each of the compounds tested was determined as a function of the difference between the radius of the fungus colony on the treated disc versus the radius of the fungus colony on the untreated disc.

Broadly, the inhibition is the relative decrease from the control value, in per cent. As to `C=CCC(C#N)(CCc1ccccc1F)c1cccnc1` (stereo not drawn) [Compound 67], the “Percent Reduction of Disease, CMS” value with Erysiphe cichoracearum is 20%. In addition, the values for the pest or weed control at 1000 µg/mL with Uromyces phaseoli and in the experiment with Erysiphe graminis were 50% and 100%, respectively. Moreover, the inhibition at 500 µg/mL with Septoria nodorum, in the experiment with Botrytis cinerea and in the experiment on Fusarium oxysporum was 100% in each case. Moreover, in experiment [1], the “CER PER inhibition score” value was found to be 100.

Consider `CCCCC(C#N)(CCc1ccc(OCCF)cc1)c1cccnc1` (stereo not drawn) [Compound 68], for which the “Percent Reduction of Disease, CMS” value in the experiment with Erysiphe cichoracearum is 0%. The results for the pest or weed control at 1000 µg/mL in the experiment with Uromyces phaseoli and with Erysiphe graminis were 50% and 75%, respectively. In addition, the inhibition at 500 µg/mL with Septoria nodorum, with Botrytis cinerea and with Fusarium oxysporum was 100% in each case. In experiment [1], the “CER PER inhibition score” value worked out at 100.

Turning to `CCCCC(C#N)(CCc1ccc(OCCC)cc1)c1cccnc1` (stereo not drawn) [Compound 69], in the experiment on Erysiphe cichoracearum, the “Percent Reduction of Disease, CMS” value was 20%. Also, the “Percent Reduction of Disease, URO PHA” value in the experiment with Uromyces phaseoli was found to be 0%. Besides, the “Percent Reduction of Disease, ERY GRA” value in the experiment on Erysiphe graminis was 50%. The “Percent Growth Inhibition, SEP NOD” value with Septoria nodorum was 100%. Besides, the “CER PER inhibition score” value in experiment [1] is 0. Besides, the “Percent Growth Inhibition, BOT CIN” value in the experiment with Botrytis cinerea came out at 70%. Further, in the experiment on Fusarium oxysporum, the “Percent Growth Inhibition, FUS OXY” value worked out at 30%.

For the compound `C=CCC(C#N)(CCCc1ccccc1OC)c1cccnc1` (stereo not drawn) [Compound 70], the “Percent Reduction of Disease, CMS” value with Erysiphe cichoracearum came out at 0%. In addition, the values for the pest or weed control at 1000 µg/mL with Uromyces phaseoli and with Erysiphe graminis were 17% and 92%, respectively. The inhibition at 500 µg/mL was determined as 100% with Septoria nodorum, 100% with Botrytis cinerea and 25% with Fusarium oxysporum. Besides, the “CER PER inhibition score” value in experiment [1] is on record as 100.

Consider `CCCC(C#N)(CCCc1ccccc1OC)c1cccnc1` (stereo not drawn) [Compound 71], for which the “Percent Reduction of Disease, CMS” value in the experiment with Erysiphe cichoracearum is given as 80%. Besides, the pest or weed control at 1000 µg/mL in the experiment with Uromyces phaseoli was determined as 92%; with Erysiphe graminis it was 100%. Further, the figures for the inhibition at 500 µg/mL in the experiment on Septoria nodorum, in the experiment on Botrytis cinerea and with Fusarium oxysporum were 100%, 100% and 72%, respectively. In experiment [1], the “CER PER inhibition score” value turned out to be 100.

`CCCC(C#N)(CCc1ccccc1C(F)(F)F)c1cccnc1` (stereo not drawn) [Compound 72]: the “Percent Reduction of Disease, CMS” value in the experiment on Erysiphe cichoracearum was 80%. Moreover, the pest or weed control at 1000 µg/mL in the experiment with Uromyces phaseoli came to 0%; in the experiment with Erysiphe graminis, 100%. In addition, the results for the inhibition at 500 µg/mL in the experiment with Septoria nodorum, with Botrytis cinerea and with Fusarium oxysporum were 100%, 100% and 16%, respectively. The “CER PER inhibition score” value in experiment [1] is recorded as 0.

`CCCCC(C#N)(CCc1ccccc1C(F)(F)F)c1cccnc1` (stereo not drawn) [Compound 73]: the “Percent Reduction of Disease, CMS” value in the experiment on Erysiphe cichoracearum came out at 0%. The pest or weed control at 1000 µg/mL with Uromyces phaseoli and in the experiment with Erysiphe graminis was 100% throughout. Also, the inhibition at 500 µg/mL in the experiment on Septoria nodorum is 70%; in the experiment with Botrytis cinerea, 100%; in the experiment on Fusarium oxysporum, 75%. Further, the “CER PER inhibition score” value in experiment [1] was found to be 0.

Take `CCCCC(C#N)(CCc1ccccc1F)c1cccnc1` (stereo not drawn) [Compound 74]: the “Percent Reduction of Disease, CMS” value in the experiment on Erysiphe cichoracearum stood at 80%. Moreover, the pest or weed control at 1000 µg/mL was found to be 92% in the experiment with Uromyces phaseoli and 100% with Erysiphe graminis. For the same compound, the results for the inhibition at 500 µg/mL in the experiment on Septoria nodorum, in the experiment with Botrytis cinerea and in the experiment on Fusarium oxysporum were 100%, 100% and 3%, respectively. For the same compound, the “CER PER inhibition score” value in experiment [1] is reported as 0.

Regarding `CCCC(C#N)(CCc1ccccc1F)c1cccnc1` (stereo not drawn) [Compound 75], the “Percent Reduction of Disease, CMS” value in the experiment on Erysiphe cichoracearum stood at 0%. The pest or weed control at 1000 µg/mL amounted to 83% in the experiment on Uromyces phaseoli and 92% in the experiment on Erysiphe graminis. Further, the inhibition at 500 µg/mL in the experiment on Septoria nodorum, with Botrytis cinerea and in the experiment on Fusarium oxysporum was 100% each time. Further, the “CER PER inhibition score” value in experiment [1] amounted to 0.

Regarding `CCCCC(C#N)(CCCc1ccc(OC)cc1)c1cccnc1` (stereo not drawn) [Compound 76], in the experiment on Erysiphe cichoracearum, the “Percent Reduction of Disease, CMS” value is recorded as 0%. For the same compound, the pest or weed control at 1000 µg/mL in the experiment with Uromyces phaseoli amounted to 67%; in the experiment with Erysiphe graminis it was 100%. The inhibition at 500 µg/mL with Septoria nodorum worked out at 100%; in the experiment on Botrytis cinerea, 100%; in the experiment with Fusarium oxysporum it was 50%. In addition, the “CER PER inhibition score” value in experiment [1] stood at 100.

For `N#CC(CCc1ccc(F)cc1)(CCC(F)(F)F)c1cccnc1` (stereo not drawn) [Compound 77], the “Percent Reduction of Disease, CMS” value with Erysiphe cichoracearum amounted to 100%. For the same compound, the pest or weed control at 1000 µg/mL in the experiment on Uromyces phaseoli and in the experiment on Erysiphe graminis was 90% throughout. In addition, the inhibition at 500 µg/mL is 20% in the experiment with Septoria nodorum, 65% in the experiment with Botrytis cinerea and 55% with Fusarium oxysporum. For the same compound, the “CER PER inhibition score” value in experiment [1] is given as 0.

Turning to `N#CC(CCCC(F)(F)F)(CCc1ccc(F)cc1)c1cccnc1` (stereo not drawn) [Compound 78], in the experiment on Erysiphe cichoracearum, the “Percent Reduction of Disease, CMS” value was found to be 92%. For the same compound, the pest or weed control at 1000 µg/mL in the experiment on Uromyces phaseoli came to 83%; in the experiment with Erysiphe graminis it was 100%. The inhibition at 500 µg/mL with Septoria nodorum came out at 30%; in the experiment with Botrytis cinerea, 34%; in the experiment with Fusarium oxysporum, 40%. The “CER PER inhibition score” value in experiment [1] was found to be 0.

In the case of `Cc1ccc(CCC(C#N)(CCCC(F)(F)F)c2cccnc2)cc1` (stereo not drawn) [Compound 79], the “Percent Reduction of Disease, CMS” value with Erysiphe cichoracearum is recorded as 92%. The pest or weed control at 1000 µg/mL in the experiment on Uromyces phaseoli is 0%; in the experiment with Erysiphe graminis, 100%. Moreover, the inhibition at 500 µg/mL with Septoria nodorum is 30%; with Botrytis cinerea, 0%; in the experiment on Fusarium oxysporum, 46%. Also, the “CER PER inhibition score” value in experiment [1] is 0.

In the case of `Cc1ccc(CCC(C#N)(CCC(F)(F)F)c2cccnc2)cc1` (stereo not drawn) [Compound 80], the “Percent Reduction of Disease, CMS” value in the experiment on Erysiphe cichoracearum worked out at 92%. Further, the pest or weed control at 1000 µg/mL came to 83% in the experiment on Uromyces phaseoli and 100% with Erysiphe graminis. Moreover, the figures for the inhibition at 500 µg/mL in the experiment on Septoria nodorum, in the experiment with Botrytis cinerea and in the experiment on Fusarium oxysporum were 0%, 9% and 24%, respectively. The “CER PER inhibition score” value in experiment [1] came to 0.

For `Cc1ccc(CCC(C#N)(CCCF)c2cccnc2)cc1` (stereo not drawn) [Compound 81], the “Percent Reduction of Disease, CMS” value in the experiment with Erysiphe cichoracearum amounted to 0%. The values for the pest or weed control at 1000 µg/mL in the experiment on Uromyces phaseoli and in the experiment on Erysiphe graminis were 90% and 70%, respectively. The inhibition at 500 µg/mL with Septoria nodorum was 40%; in the experiment on Botrytis cinerea it was 30%; with Fusarium oxysporum it was 20%. In addition, the “CER PER inhibition score” value in experiment [1] is on record as 0.
